Where a SMILES comes first, the peptide text is derived from it. [ ]: non-standard residue; d: D form. The star is where a group is joined. X1 = C[C@@H](O)[C@@H](CN[C@@H](CCCN=C(N)N)C(=O)N[C@@H](CCC(N)=O)C(=O)N[C@@H](CCCN=C(N)N)C(=O)N[C@@H](Cc1ccc(O)cc1)C(N)=O)N*; X2 = N=C(N)NCCC[C@@H](CN[C@@H](CCC(N)=O)C(=O)N[C@@H](CCCNC(=N)N)C(=O)N[C@@H](Cc1ccc(O)cc1)C(N)=O)N*; Argψ(CH2NH)TyrNH2 = N=C(N)NCCC[C@@H](CN[C@@H](Cc1ccc(O)cc1)C(N)=O)N*; Dip = N[C@H](C(=O)O)C(c1ccccc1)c1ccccc1; 1Nal = N[C@@H](Cc1cccc2ccccc12)C(=O)O; Tic = O=C(O)[C@@H]1Cc2ccccc2CN1
How the values were obtained:
[1] = target: Neuropeptide Y receptor type 2 (Rattus norvegicus, UniProt Q9ERC0); assay: Antisecretory potency, affinity for intestinal PYY of rat jejunum by using short circuit current (SCC) method.; type: tissue-based
[2] = target: Neuropeptide Y receptor type 1 (Homo sapiens, UniProt P25929); assay: Affinity against Neuropeptide Y receptor Y1 in SK-N-MC cell line; type: cell-based
[3] = target: T1, Neuropeptide Y receptor type 2 (Homo sapiens, UniProt P49146); assay: Affinity against Neuropeptide Y receptor Y2 in SK-N-BE2 cell line
T1 sequence (P49146 whole entry): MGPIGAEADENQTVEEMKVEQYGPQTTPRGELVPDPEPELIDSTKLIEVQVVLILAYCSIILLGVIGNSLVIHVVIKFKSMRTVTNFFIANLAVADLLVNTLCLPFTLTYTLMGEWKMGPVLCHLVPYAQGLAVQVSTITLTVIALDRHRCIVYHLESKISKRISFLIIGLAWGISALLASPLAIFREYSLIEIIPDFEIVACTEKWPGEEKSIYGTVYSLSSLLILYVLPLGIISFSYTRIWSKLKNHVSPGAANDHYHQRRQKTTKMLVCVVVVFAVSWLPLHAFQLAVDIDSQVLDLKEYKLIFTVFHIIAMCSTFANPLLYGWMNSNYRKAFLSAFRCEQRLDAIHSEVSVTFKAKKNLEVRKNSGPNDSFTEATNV

Neuropeptide Y receptor type 1, sequence (P25929 whole entry): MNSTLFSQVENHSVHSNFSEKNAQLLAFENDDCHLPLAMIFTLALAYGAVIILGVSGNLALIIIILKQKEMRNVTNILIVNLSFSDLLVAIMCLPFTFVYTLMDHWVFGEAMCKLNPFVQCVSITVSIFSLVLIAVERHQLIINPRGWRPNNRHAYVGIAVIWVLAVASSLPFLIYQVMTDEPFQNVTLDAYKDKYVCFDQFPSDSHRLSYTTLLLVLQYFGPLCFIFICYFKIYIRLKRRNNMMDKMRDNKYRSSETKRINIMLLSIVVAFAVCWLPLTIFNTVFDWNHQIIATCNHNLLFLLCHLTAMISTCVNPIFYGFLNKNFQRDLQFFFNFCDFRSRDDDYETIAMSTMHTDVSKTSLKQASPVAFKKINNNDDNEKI
Neuropeptide Y receptor type 2 (Rattus norvegicus, UniProt Q9ERC0), sequence (Q9ERC0 whole entry): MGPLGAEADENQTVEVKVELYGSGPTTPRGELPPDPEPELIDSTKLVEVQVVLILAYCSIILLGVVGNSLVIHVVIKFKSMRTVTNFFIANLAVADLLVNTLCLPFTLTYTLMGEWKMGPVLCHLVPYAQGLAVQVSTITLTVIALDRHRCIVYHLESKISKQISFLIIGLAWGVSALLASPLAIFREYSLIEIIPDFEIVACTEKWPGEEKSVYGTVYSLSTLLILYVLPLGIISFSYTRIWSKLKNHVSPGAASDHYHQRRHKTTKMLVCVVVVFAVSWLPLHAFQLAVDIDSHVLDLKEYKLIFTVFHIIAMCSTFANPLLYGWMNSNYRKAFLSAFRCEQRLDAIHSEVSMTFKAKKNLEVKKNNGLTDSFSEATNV

Row | IC50 [1] [nM] | IC50 [2] [nM] | IC50 [3] [nM] | Compound
1 | 0.59 | 1590 | 57 | CCCC[C@H](NC(=O)[C@H](CO)NC(=O)[C@H](C)NC(C)=O)C(=O)N[C@@H](CCCN=C(N)N)C(=O)N[C@@H](Cc1c[nH]cn1)C(=O)N[C@@H](Cc1ccc(O)cc1)C(=O)N[C@@H](CCCC)C(=O)N[C@@H](CC(N)=O)C(=O)N[C@@H](CCCC)C(=O)N[C@@H](CCC)C(=O)N[C@H](C(=O)N[C@@H](CCCN=C(N)N)C(=O)N[C@@H](CCC(N)=O)C(=O)N[C@@H](CCCN=C(N)N)C(=O)N[C@@H](Cc1ccc(O)cc1)C(N)=O)[C@@H](C)O
2 | 0.91 | > 1000 | 1.3 | CC(=O)N[C@@H](C)C(=O)N[C@@H](CO)C(=O)N[C@@H](CC(C)C)C(=O)N[C@@H](CCCNC(=N)N)C(=O)N[C@@H](Cc1cnc[nH]1)C(=O)N[C@@H](Cc1ccc(O)cc1)C(=O)N[C@@H](CC(C)C)C(=O)N[C@@H](CC(N)=O)C(=O)N[C@@H](CC(C)C)C(=O)N[C@H](C(=O)N[C@H](C(=O)N[C@@H](CCCNC(=N)N)C(=O)N[C@@H](CCC(N)=O)C(=O)N[C@@H](CCCNC(=N)N)C(=O)N[C@@H](Cc1ccc(O)cc1)C(N)=O)[C@@H](C)O)C(C)C
3 | > 100 | 1270 | 864 | CC(=O)N[C@@H](C)C(=O)N[C@@H](CO)C(=O)N[C@@H](CC(C)C)C(=O)N[C@@H](CCCN=C(N)N)C(=O)N[C@@H](Cc1c[nH]cn1)C(=O)N[C@H](CN[C@@H](CC(C)C)C(=O)N[C@@H](CC(N)=O)C(=O)N[C@@H](CC(C)C)C(=O)N[C@H](C(=O)N[C@H](C(=O)N[C@@H](CCCN=C(N)N)C(=O)N[C@@H](CCC(N)=O)C(=O)N[C@@H](CCCN=C(N)N)C(=O)N[C@@H](Cc1ccc(O)cc1)C(N)=O)[C@@H](C)O)C(C)C)Cc1ccc(O)cc1
4 | > 100 | 769 | > 3000 | CC(=O)N[C@@H](C)C(=O)N[C@@H](CO)C(=O)N[C@@H](CC(C)C)C(=O)N[C@@H](CCCN=C(N)N)C(=O)N[C@@H](Cc1c[nH]cn1)C(=O)N[C@@H](Cc1ccc(O)cc1)C(=O)N[C@@H](CC(C)C)C(=O)N[C@@H](CC(N)=O)C(=O)N[C@H](CN[C@H](C(=O)N[C@H](C(=O)N[C@@H](CCCN=C(N)N)C(=O)N[C@@H](CCC(N)=O)C(=O)N[C@@H](CCCN=C(N)N)C(=O)N[C@@H](Cc1ccc(O)cc1)C(N)=O)[C@@H](C)O)C(C)C)CC(C)C
5 | 5.03 | 1090 | 52 | CC(=O)N[C@@H](C)C(=O)N[C@@H](CO)C(=O)N[C@@H](CC(C)C)C(=O)N[C@@H](CCCN=C(N)N)C(=O)N[C@@H](Cc1c[nH]cn1)C(=O)N[C@@H](Cc1ccc(O)cc1)C(=O)N[C@@H](CC(C)C)C(=O)N[C@@H](CC(N)=O)C(=O)N[C@@H](CC(C)C)C(=O)N[C@H](C(=O)N[C@H](CN[C@@H](CCCN=C(N)N)C(=O)N[C@@H](CCC(N)=O)C(=O)N[C@@H](CCCN=C(N)N)C(=O)N[C@@H](Cc1ccc(O)cc1)C(N)=O)[C@@H](C)O)C(C)C (Ac-ASLRHYLNLV-X1)
6 | > 100 | 1250 | > 10000 | CC(=O)N[C@@H](C)C(=O)N[C@@H](CO)C(=O)N[C@@H](CC(C)C)C(=O)N[C@@H](CCCNC(=N)N)C(=O)N[C@@H](Cc1cnc[nH]1)C(=O)N[C@@H](Cc1ccc(O)cc1)C(=O)N[C@@H](CC(C)C)C(=O)N[C@@H](CC(N)=O)C(=O)N[C@@H](CC(C)C)C(=O)N[C@H](C(=O)N[C@H](C(=O)N[C@@H](CCCNC(=N)N)CN[C@@H](CCC(N)=O)C(=O)N[C@@H](CCCNC(=N)N)C(=O)N[C@@H](Cc1ccc(O)cc1)C(N)=O)[C@@H](C)O)C(C)C (Ac-ASLRHYLNLVT-X2)
7 | > 100 | 1250 | > 10000 | CC(=O)N[C@@H](C)C(=O)N[C@@H](CO)C(=O)N[C@@H](CC(C)C)C(=O)N[C@@H](CCCNC(=N)N)C(=O)N[C@@H](Cc1cnc[nH]1)C(=O)N[C@@H](Cc1ccc(O)cc1)C(=O)N[C@@H](CC(C)C)C(=O)N[C@@H](CC(N)=O)C(=O)N[C@@H](CC(C)C)C(=O)N[C@H](C(=O)N[C@H](C(=O)N[C@@H](CCCNC(=N)N)C(=O)N[C@@H](CCC(N)=O)C(=O)N[C@@H](CCCNC(=N)N)C(=O)N[C@H](C(N)=O)C(c1ccccc1)c1ccccc1)[C@@H](C)O)C(C)C (Ac-ASLRHYLNLVTRQR[Dip]-NH2)
8 | 3.54 | 159 | 1.09 | CC(=O)N[C@@H](C)C(=O)N[C@@H](CO)C(=O)N[C@@H](CC(C)C)C(=O)N[C@@H](CCCNC(=N)N)C(=O)N[C@@H](Cc1cnc[nH]1)C(=O)N[C@@H](Cc1ccc(O)cc1)C(=O)N[C@@H](CC(C)C)C(=O)N[C@@H](CC(N)=O)C(=O)N[C@@H](Cc1cccc2ccccc12)C(=O)N[C@H](C(=O)N[C@H](C(=O)N[C@@H](CCCNC(=N)N)C(=O)N[C@@H](CCC(N)=O)C(=O)N[C@@H](CCCNC(=N)N)C(=O)N[C@@H](Cc1ccc(O)cc1)C(N)=O)[C@@H](C)O)C(C)C (Ac-ASLRHYLN[1Nal]VTRQRY-NH2)

The next lines start with the compound.

Row | Compound | IC50 [1] [nM] | IC50 [2] [nM] | IC50 [3] [nM]
9 | CC(=O)N[C@@H](C)C(=O)N[C@@H](CO)C(=O)N[C@@H](CC(C)C)C(=O)N[C@@H](CCCN=C(N)N)C(=O)N[C@@H](Cc1c[nH]cn1)C(=O)N[C@@H](Cc1ccc(O)cc1)C(=O)N[C@@H](CC(C)C)C(=O)N[C@@H](CC(N)=O)C(=O)N[C@H](Cc1c[nH]c2ccccc12)C(=O)N[C@H](C(=O)N[C@H](C(=O)N[C@@H](CCCN=C(N)N)C(=O)N[C@@H](CCC(N)=O)C(=O)N[C@@H](CCCN=C(N)N)C(=O)N[C@@H](Cc1ccc(O)cc1)C(N)=O)[C@@H](C)O)C(C)C | > 100 | 47.9 | 56.5
10 | CC(=O)N[C@@H](C)C(=O)N[C@@H](CO)C(=O)N[C@@H](CC(C)C)C(=O)N[C@@H](CCCNC(=N)N)C(=O)N[C@@H](Cc1cnc[nH]1)C(=O)N[C@@H](Cc1ccc(O)cc1)C(=O)N[C@@H](CC(C)C)C(=O)N[C@@H](CC(N)=O)C(=O)N[C@@H](Cc1c[nH]c2ccccc12)C(=O)N[C@H](C(=O)N[C@H](C(=O)N[C@@H](CCCNC(=N)N)C(=O)N[C@@H](CCC(N)=O)C(=O)N[C@@H](CCCNC(=N)N)CN[C@@H](Cc1ccc(O)cc1)C(N)=O)[C@@H](C)O)C(C)C | 0.28 | 1510 | 1.39
11 | CCCC[C@H](NC(=O)[C@H](CO)NC(=O)[C@H](C)NC(C)=O)C(=O)N[C@@H](CCCNC(=N)N)C(=O)N[C@@H](Cc1cnc[nH]1)C(=O)N[C@@H](Cc1ccc(O)cc1)C(=O)N[C@@H](CCCC)C(=O)N[C@@H](CC(N)=O)C(=O)N[C@@H](Cc1c[nH]c2ccccc12)C(=O)N[C@@H](CCC)C(=O)N[C@H](C(=O)N[C@@H](CCCNC(=N)N)C(=O)N[C@@H](CCC(N)=O)C(=O)N[C@@H](CCCNC(=N)N)C(=O)N[C@@H](Cc1ccc(O)cc1)C(N)=O)[C@@H](C)O | 0.56 | 183 | 3.73
12 | CC(=O)N[C@@H](C)C(=O)N[C@@H](CO)C(=O)N[C@@H](CC(C)C)C(=O)N[C@@H](CCCN=C(N)N)C(=O)N[C@@H](Cc1c[nH]cn1)C(=O)N[C@@H](Cc1ccc(O)cc1)C(=O)N[C@H](CN[C@@H](CC(N)=O)C(=O)N[C@@H](CC(C)C)C(=O)N[C@H](C(=O)N[C@H](C(=O)N[C@@H](CCCN=C(N)N)C(=O)N[C@@H](CCC(N)=O)C(=O)N[C@@H](CCCN=C(N)N)C(=O)N[C@@H](Cc1ccc(O)cc1)C(N)=O)[C@@H](C)O)C(C)C)CC(C)C | 0.36 | 1390 | 55
13 | CC(=O)N[C@@H](C)C(=O)N[C@@H](CO)C(=O)N[C@@H](CC(C)C)C(=O)N[C@@H](CCCNC(=N)N)C(=O)N[C@@H](Cc1cnc[nH]1)C(=O)N[C@@H](Cc1c[nH]c2ccccc12)C(=O)N[C@@H](CC(C)C)C(=O)N[C@@H](CC(N)=O)C(=O)N[C@@H](CC(C)C)C(=O)N[C@H](C(=O)N[C@H](C(=O)N[C@@H](CCCNC(=N)N)C(=O)N[C@@H](CCC(N)=O)C(=O)N[C@@H](CCCNC(=N)N)CN[C@@H](Cc1ccc(O)cc1)C(N)=O)[C@@H](C)O)C(C)C (Ac-ASLRHWLNLVTRQ-{Argψ(CH2NH)TyrNH2}) | 1.12 | > 1000 | 1.05
14 | CC(=O)N[C@@H](C)C(=O)N[C@@H](CO)C(=O)N[C@@H](CC(C)C)C(=O)N[C@@H](CCCN=C(N)N)C(=O)N[C@@H](Cc1c[nH]cn1)C(=O)N[C@@H](Cc1ccc(O)cc1)C(=O)N[C@@H](CC(C)C)C(=O)N[C@@H](CC(N)=O)C(=O)N[C@@H](CC(C)C)C(=O)N[C@H](C(=O)N[C@H](C(=O)N[C@@H](CCCN=C(N)N)C(=O)N[C@@H](CCC(N)=O)C(=O)N[C@@H](CCCN=C(N)N)CN[C@@H](Cc1ccc(O)cc1)C(N)=O)[C@@H](C)O)C(C)C (Ac-ASLRHYLNLVTRQ-{Argψ(CH2NH)TyrNH2}) | 0.05 | > 10000 | 1.32
15 | CC(=O)N[C@@H](C)C(=O)N[C@@H](CO)C(=O)N[C@@H](CC(C)C)C(=O)N[C@@H](CCCNC(=N)N)C(=O)N[C@@H](Cc1cnc[nH]1)C(=O)N1Cc2ccccc2C[C@H]1C(=O)N[C@@H](CC(C)C)C(=O)N[C@@H](CC(N)=O)C(=O)N[C@@H](CC(C)C)C(=O)N[C@H](C(=O)N[C@H](C(=O)N[C@@H](CCCNC(=N)N)C(=O)N[C@@H](CCC(N)=O)C(=O)N[C@@H](CCCNC(=N)N)C(=O)N[C@@H](Cc1ccc(O)cc1)C(N)=O)[C@@H](C)O)C(C)C (Ac-ASLRH[Tic]LNLVTRQRY-NH2) | 3.4 |  | 186
16 | Ac-FSLRHFLNLVTRQRY-NH2 |  | 275 | 5.61
